# Assay results published in ChEMBL document CHEMBL1133555 (J Med Chem, 2000).
# Key:
# [1] = biological target: Sodium-dependent dopamine transporter (Rattus norvegicus, UniProt P23977); assay: Binding affinity for dopamine transporter (DAT) labeled with [125 I]RTI-55
# [2] = biological target: Norepinephrine transporter (Rattus norvegicus, UniProt Q9WTR4); assay: Binding affinity for norepinephrine transporter (NET) labeled with [3H]nisoxetine
# [3] = biological target: Sodium-dependent serotonin transporter (Rattus norvegicus, UniProt P31652); assay: Binding affinity for serotonin transporter labeled with [125 I]RTI-55
# Chain of Sodium-dependent serotonin transporter (P31652 whole entry): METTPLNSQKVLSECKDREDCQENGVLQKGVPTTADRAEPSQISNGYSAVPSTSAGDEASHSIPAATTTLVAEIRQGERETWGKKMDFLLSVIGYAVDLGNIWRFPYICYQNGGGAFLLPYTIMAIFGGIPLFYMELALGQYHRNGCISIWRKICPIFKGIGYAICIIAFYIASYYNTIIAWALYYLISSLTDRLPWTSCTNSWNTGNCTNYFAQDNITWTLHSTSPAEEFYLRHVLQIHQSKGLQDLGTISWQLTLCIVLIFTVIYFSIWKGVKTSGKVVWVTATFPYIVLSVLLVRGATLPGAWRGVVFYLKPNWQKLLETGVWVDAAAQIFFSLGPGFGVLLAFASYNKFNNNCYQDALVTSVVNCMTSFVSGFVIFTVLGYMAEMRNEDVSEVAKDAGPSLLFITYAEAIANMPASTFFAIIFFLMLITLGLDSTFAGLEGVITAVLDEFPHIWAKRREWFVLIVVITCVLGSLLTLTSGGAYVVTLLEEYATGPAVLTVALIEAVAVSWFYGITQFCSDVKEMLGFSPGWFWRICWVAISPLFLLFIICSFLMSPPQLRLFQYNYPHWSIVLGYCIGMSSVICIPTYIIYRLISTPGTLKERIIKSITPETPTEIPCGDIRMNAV
# Chain of Norepinephrine transporter (Q9WTR4 whole entry): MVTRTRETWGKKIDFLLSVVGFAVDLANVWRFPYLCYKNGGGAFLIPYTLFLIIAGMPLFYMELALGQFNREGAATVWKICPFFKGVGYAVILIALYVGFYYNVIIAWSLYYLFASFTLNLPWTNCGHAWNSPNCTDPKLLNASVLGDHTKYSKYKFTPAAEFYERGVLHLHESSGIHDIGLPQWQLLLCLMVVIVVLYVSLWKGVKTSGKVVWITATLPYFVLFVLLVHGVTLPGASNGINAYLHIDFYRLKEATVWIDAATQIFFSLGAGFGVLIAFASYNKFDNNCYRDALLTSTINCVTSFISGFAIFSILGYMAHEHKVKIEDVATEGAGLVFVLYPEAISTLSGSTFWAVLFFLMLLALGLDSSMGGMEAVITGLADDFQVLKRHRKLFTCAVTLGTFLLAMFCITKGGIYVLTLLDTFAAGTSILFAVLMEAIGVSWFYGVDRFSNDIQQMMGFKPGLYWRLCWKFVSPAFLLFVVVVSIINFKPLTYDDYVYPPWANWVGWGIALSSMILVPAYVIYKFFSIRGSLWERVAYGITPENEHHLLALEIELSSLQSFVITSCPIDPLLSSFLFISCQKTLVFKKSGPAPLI
# Chain of Sodium-dependent dopamine transporter (P23977 whole entry): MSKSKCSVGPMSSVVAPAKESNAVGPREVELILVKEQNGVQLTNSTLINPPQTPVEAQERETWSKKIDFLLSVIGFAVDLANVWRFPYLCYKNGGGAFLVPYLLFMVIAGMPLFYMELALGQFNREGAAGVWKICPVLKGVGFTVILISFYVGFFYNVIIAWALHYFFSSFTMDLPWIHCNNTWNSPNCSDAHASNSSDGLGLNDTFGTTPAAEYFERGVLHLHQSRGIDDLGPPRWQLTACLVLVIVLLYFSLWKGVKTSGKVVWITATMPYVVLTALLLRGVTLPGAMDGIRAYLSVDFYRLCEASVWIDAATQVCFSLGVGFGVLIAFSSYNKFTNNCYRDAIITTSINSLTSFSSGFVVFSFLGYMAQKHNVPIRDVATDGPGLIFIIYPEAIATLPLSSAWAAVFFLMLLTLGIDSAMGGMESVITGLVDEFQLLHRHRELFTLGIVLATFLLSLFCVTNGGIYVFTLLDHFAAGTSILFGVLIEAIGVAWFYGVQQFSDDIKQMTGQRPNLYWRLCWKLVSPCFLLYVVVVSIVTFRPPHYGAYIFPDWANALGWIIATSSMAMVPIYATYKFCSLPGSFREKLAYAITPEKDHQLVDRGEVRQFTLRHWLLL
Structure (SMILES),Ki [1],Ki [2],Ki [3]
CN[C@@H]1CC(c2ccc(Cl)c(Cl)c2)c2cc(OC)c(OC)cc21 (stereo partly specified),3.6 nM,102 nM,61 nM
CN[C@@H]1CC(c2ccc(Cl)c(Cl)c2)c2ccc(OC)cc21 (stereo partly specified),11.6 nM,15 nM,1.1 nM
CN[C@@H]1CC(c2ccc(Cl)c(Cl)c2)c2cc(OC)ccc21 (stereo partly specified),9.4 nM,76.5 nM,6.5 nM
CN[C@H]1c2cc(OC)ccc2C(c2ccc(Cl)c(Cl)c2)[C@@H]1O (stereo partly specified),1130 nM,1690 nM,8.1 nM
CN[C@@H]1CC(c2ccc(Cl)c(Cl)c2)c2c(OC)cccc21 (stereo partly specified),1.7 nM,27 nM,63 nM
CN[C@@H]1CC(c2ccc(Cl)c(Cl)c2)c2cccc(OC)c21 (stereo partly specified),32 nM,93 nM,108 nM
CN[C@@H]1CC(c2ccc(Cl)c(Cl)c2OC)c2ccc(OC)cc21 (stereo partly specified),788 nM,122 nM,5.6 nM
